In patent publication US12319655B2, “RAF kinase inhibitors and methods of use thereof” (Deciphera Pharmaceuticals, LLC, priority 2021, dated 2025):

Key:
[1] = target: C-Raf kinase (SEQ. ID NO: 3) (Homo sapiens (Human), UniProt P04049, Y340D/Y341D); assay: Biochemical Assay for C-Raf (1); details: Table J, biochemical assay (1); read-out: CRAF (1)
Summary of the method: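 IC50 values come from a four-parameter fit of percent inhibition, using the reaction rate over 4–5 h of a 6 h continuous 340 nm read at 30 °C. The enzyme mix was C-Raf 0.43 nM, MEK substrate 30.1 nM and ATP 1 mM, in a PK/LDH NADH-coupled format in Tris pH 7.5 with 1% DMSO.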

[2] = tested on: WM3928 cells; assay: WM3928 Cell Proliferation Assay (1); assay type: cell-based
Summary of the method: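 IC50 was derived from resazurin fluorescence (ex 540, em 600 nm) after a 6–7 h dye incubation. Before that, cells had 67–72 h of compound exposure at 37 °C, 5% CO2.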

[3] = tested on: Miapaca-2 cells; assay: MiaPaca-2 Cell Proliferation Assay (1); assay type: cell-based; details: Homo sapiens, MIA PaCa-2, single agent, read-out: MiaPaca2 (1) IC50
Summary of the method: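 Resazurin was added after compound exposure and incubated 5-6 h, then fluorescence read at 540 nm excitation and 600 nm emission to give IC50.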

[4] = tested on: Miapaca-2 cells; assay: MiaPaca-2 Cell Proliferation Assay (2); assay type: cell-based; details: Homo sapiens, MIA PaCa-2, single agent
Procedure: MiaPaca-2 Cell Proliferation Assay (2)
Miapaca-2 cells (catalog #CRL-1420) are obtained from the American Type Culture Collect (ATTC, Manassas, VA). Briefly, cells were grown in DMEM supplemented with 10% characterized fetal bovine serum (Invitrogen, Carlsbad, CA), 2.5% New Zealand sourced horse serum and 1% Penicillin/Streptomycin/L-Glutamine at 37° C., 5% CO2, and 95% humidity. Cells are expanded until reaching 70-95% confluency at which point they are sub-cultured or harvested for assay use. A serial dilution of test compound is dispensed into a 384-well black clear bottom plate in triplicate. Seven hundred fifty cells are added per well in 50 μL complete growth medium in the 384-well plate. Plates are incubated for 67-72 h at 37° C., 5% CO2, and 95% humidity. At the end of the incubation, 10 μL of a 440 μM solution of resazurin (Sigma, St. Louis, MO) in PBS is added to each well of the plate and plates are incubated for an additional 5-6 h at 37° C., 5% CO2, and 95% humidity. Plates are read on a Synergy2 or equivalent reader (Biotek, Winooski VT) using an excitation of 540 nm and an emission of 600 nm. Data is analyzed using Prism software (GraphPad, San Diego, CA) to calculate IC50 values.

Sequence of C-Raf kinase (SEQ. ID NO: 3) (P04049 307-648 Y340D/Y341D): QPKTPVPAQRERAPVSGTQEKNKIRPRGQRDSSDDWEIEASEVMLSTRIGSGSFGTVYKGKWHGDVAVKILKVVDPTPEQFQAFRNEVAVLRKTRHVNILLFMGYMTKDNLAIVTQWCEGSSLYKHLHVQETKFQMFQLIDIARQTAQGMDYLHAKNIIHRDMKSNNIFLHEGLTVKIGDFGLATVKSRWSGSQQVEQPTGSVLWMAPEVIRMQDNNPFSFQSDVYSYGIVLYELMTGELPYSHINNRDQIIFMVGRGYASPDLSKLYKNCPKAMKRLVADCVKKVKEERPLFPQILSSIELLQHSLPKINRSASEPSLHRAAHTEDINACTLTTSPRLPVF

SMILES | IC50 [1] | IC50 [3] | IC50 [4] | IC50 [2]
COC(=O)Nc1cc(-c2cncc(-c3cc(NC(=O)c4ccnc(C5(C#N)CC5)c4)ccc3C)c2)ncn1 [Example 405] | ≤ 100 nM | 500 to 1000 nM | – | ≤ 100 nM
Cc1ccc(NC(=O)c2cc(C3CC3)on2)cc1-c1cncc(-c2cc(NC(=O)C3CC3)ncn2)c1 [Example 421] | ≤ 100 nM | 1000 to 10000 nM | – | ≤ 100 nM
COC(=O)Nc1cc(-c2cncc(-c3cc(NC(=O)c4ccnc(C(C)(C)C#N)c4)ccc3C)c2)ncn1 [Example 414] | ≤ 100 nM | 100 to 500 nM | – | ≤ 100 nM
COC(=O)Nc1cc(-c2cnnc(-c3cc(NC(=O)c4cn(C(C)C)nn4)ccc3C)c2)ccn1 [Example 409] | 100 to 500 nM | – | – | 1000 to 10000 nM
Cc1ncc(NC(=O)c2ccnc(C(C)(C)C#N)c2)cc1-c1cncc(-c2cc(NC(=O)C3CC3)ncn2)c1 [Example 410] | ≤ 100 nM | 1000 to 10000 nM | – | ≤ 100 nM
COC(=O)Nc1cc(-c2cccc(-c3cc(NC(=O)Cn4cc(C(C)C)nn4)cnc3C)c2)ccn1 [Example 415] | 100 to 500 nM | – | – | 1000 to 10000 nM
Cc1ccc(NC(=O)c2ccnc(C(C)(C)C#N)c2)cc1-c1cncc(-c2cc(NC(=O)C(C)C)ncn2)c1 [Example 420] | ≤ 100 nM | – | – | ≤ 100 nM
Cc1ccc(NC(=O)c2ccnc(C(C)(F)F)c2)cc1-c1cncc(-c2cc(NC(=O)C3CC3)ncn2)c1 [Example 419] | ≤ 100 nM | 100 to 500 nM | – | ≤ 100 nM
Cc1ccc(NC(=O)c2ccnc(C(C)(C)F)c2)cc1-c1cncc(-c2ccnc(NC(=O)C3CC3)c2)c1 [Example 417] | ≤ 100 nM | 500 to 1000 nM | – | ≤ 100 nM
COC(=O)Nc1cc(-c2cc(-c3cc(NC(=O)c4ccnc(C(C)(C)F)c4)ccc3C)nc(C)n2)ccn1 [Example 416] | ≤ 100 nM | 500 to 1000 nM | – | ≤ 100 nM
Cc1ccc(NC(=O)c2cn(C(C)C)nn2)cc1-c1cncc(-c2cc(NC(=O)C3CC3)ncn2)c1 [Example 412] | ≤ 100 nM | 500 to 1000 nM | – | ≤ 100 nM
COC(=O)Nc1cc(-c2cccc(-c3cc(NC(=O)c4ccnc(C(C)(C)F)c4)cnc3C)c2)ncn1 [Example 404] | ≤ 100 nM | – | – | 100 to 500 nM
Cc1ccc(NC(=O)c2ccnc(C(C)(C)F)c2)cc1-c1cncc(-c2cc(N)ncn2)c1 [Example 411] | ≤ 100 nM | 1000 to 10000 nM | – | ≤ 100 nM
Cc1cc(F)c(NC(=O)c2ccnc(C(C)(C)F)c2)cc1-c1cncc(-c2cc(NC(=O)C3CC3)ncn2)c1 [Example 423] | ≤ 100 nM | – | – | ≤ 100 nM
CNC(=O)c1cc(-c2cncc(-c3cc(NC(=O)c4ccnc(C(C)(C)F)c4)c(F)cc3C)c2)ccn1 [Example 408] | ≤ 100 nM | – | – | 100 to 500 nM
Cc1ccc(NC(=O)c2ccnc(C(C)(C)C#N)c2)cc1-c1cncc(-c2cc(N)ncn2)c1 [Example 422] | ≤ 100 nM | – | – | 100 to 500 nM
Cc1cc(F)c(NC(=O)c2ccnc(C(C)(C)C#N)c2)cc1-c1cncc(-c2cc(NC(=O)C3CC3)ncn2)c1 [Example 424] | ≤ 100 nM | – | – | ≤ 100 nM
CNC(=O)c1cc(-c2cncc(-c3cc(NC(=O)c4ccnc(C(C)(C)F)c4)ccc3C)c2)ccn1 [Example 413] | ≤ 100 nM | 1000 to 10000 nM | – | ≤ 100 nM
Cc1ncc(NC(=O)c2ccnc(C(C)(C)C#N)c2)cc1-c1cccc(-c2cnc3ccccn23)c1 [Example 407] | 100 to 500 nM | – | – | 1000 to 10000 nM
Cc1cc(F)c(NC(=O)c2ccnc(C(C)(C)C#N)c2)cc1-c1cncc(-c2ccnc(NC(=O)C3CC3)c2)c1 [Example 418] | ≤ 100 nM | 100 to 500 nM | – | ≤ 100 nM
Cc1ncc(NC(=O)c2ccnc(C(C)(C)F)c2)cc1-c1cncc(-c2cc(NC(=O)C3CC3)ncn2)c1 [Example 406] | ≤ 100 nM | 500 to 1000 nM | – | ≤ 100 nM

Continued, in another order:

IC50 [1] | IC50 [3] | IC50 [4] | SMILES | IC50 [2]
≤ 100 nM | 1000 to 10000 nM | – | Cc1ccc(NC(=O)c2cnn(C3CC3)c2)cc1-c1cncc(-c2cc(NC(=O)C3CC3)ncn2)c1 [Example 430] | ≤ 100 nM
≤ 100 nM | – | – | Cc1ccc(NC(=O)c2ccnc(C(F)F)c2)cc1-c1cncc(-c2cc(NC(=O)C3CC3)ncn2)c1 [Example 429] | ≤ 100 nM
≤ 100 nM | 1000 to 10000 nM | – | Cc1ccc(NC(=O)c2cc(C(C)(C)C)on2)cc1-c1cncc(-c2cc(NC(=O)C3CC3)ncn2)c1 [Example 431] | ≤ 100 nM
– | – | 1000 to 10000 nM | CNC(=O)c1cc(-c2cc(-c3cc(NC(=O)c4ccnc(C(C)(C)F)c4)ccc3F)ccn2)ccn1 [Example 479] | –
≤ 100 nM | 1000 to 10000 nM | – | CNC(=O)c1cc(-c2nccc(-c3cc(NC(=O)c4ccnc(C(C)(C)F)c4)c(F)cc3C)n2)ccn1 [Example 427] | ≤ 100 nM
≤ 100 nM | – | – | Cc1ccc(NC(=O)c2ccnc(C(C)(C)F)c2)cc1-c1cncc(-c2ccnc3c2CC(=O)N3)c1 [Example 432] | 100 to 500 nM
≤ 100 nM | 500 to 1000 nM | – | Cc1ncc(NC(=O)c2ccnc(C(C)(C)F)c2)cc1-c1cncc(-c2ccnc(NC(=O)C3CC3)c2)c1 [Example 433] | ≤ 100 nM
– | – | 1000 to 10000 nM | CNC(=O)c1cc(-c2cncc(-c3cc(NC(=O)c4ccnc(C(C)C)c4)ccc3C)c2)ncn1 [Example 446] | –
– | – | 1000 to 10000 nM | CNC(=O)c1cc(-c2cc(-c3cc(NC(=O)c4ccnc(C(C)(C)F)c4)cc(F)c3C)ccn2)ccn1 [Example 480] | –
– | – | 1000 to 10000 nM | CNC(=O)c1cc(-c2cc(-c3cc(NC(=O)c4ccnc(C(C)(C)F)c4)ccc3C)cc(C)n2)ccn1 [Example 470] | –
100 to 500 nM | – | – | CNC(=O)c1cc(-c2cc(-c3cc(NC(=O)c4ccnc(C(C)(C)F)c4)ccc3C)nc(C)n2)ccn1 [Example 428] | 100 to 500 nM
≤ 100 nM | 1000 to 10000 nM | – | COc1ccc(NC(=O)c2ccnc(C(C)(C)C#N)c2)cc1-c1cccc(-c2cc(NC(=O)C3CC3)ncn2)c1 [Example 438] | ≤ 100 nM
– | – | 1000 to 10000 nM | CNC(=O)c1cc(-c2cc(-c3cc(NC(=O)c4ccnc(C(C)(C)F)c4)ccc3C)c(F)cn2)ccn1 [Example 469] | –
– | – | 500 to 1000 nM | Cc1ccc(NC(=O)c2ccnc(C(C)C)c2)cc1-c1ccnc(-c2ccnc(NC(=O)C3CC3)c2)c1 [Example 467] | –
– | – | 1000 to 10000 nM | CNC(=O)c1cc(-c2cncc(-c3cc(NC(=O)c4ccnc(C(C)C)c4)ccc3C)c2)ccn1 [Example 445] | –
– | – | 1000 to 10000 nM | CNC(=O)c1cc(-c2cc(-c3cc(NC(=O)c4ccnc(C(C)(F)F)c4)ccc3C)ccn2)ccn1 [Example 441] | –
– | – | 500 to 1000 nM | CNC(=O)c1cc(-c2cncc(-c3cc(NC(=O)c4ccnc(C(C)(C)C#N)c4)ccc3C)c2)ccn1 [Example 442] | –
≤ 100 nM | 1000 to 10000 nM | – | CNC(=O)c1cc(-c2cc(-c3cc(NC(=O)c4ccnc(C(C)(C)C#N)c4)ccc3OC)ccn2)ccn1 [Example 437] | 500 to 1000 nM
– | – | 500 to 1000 nM | Cc1ncc(NC(=O)c2ccnc(C(C)C)c2)cc1-c1ccnc(-c2ccnc(NC(=O)C3CC3)c2)c1 [Example 468] | –
– | – | 1000 to 10000 nM | CNC(=O)c1cc(-c2cc(-c3cc(NC(=O)c4ccnc(C(C)(C)F)c4)c(F)cc3F)ccn2)ccn1 [Example 482] | –
– | – | 1000 to 10000 nM | CNC(=O)c1cc(-c2cncc(-c3cc(NC(=O)c4ccnc(C(C)(F)F)c4)ccc3C)c2)ncn1 [Example 439] | –
– | – | 1000 to 10000 nM | Cc1ccc(NC(=O)c2ccnc(C(C)(C)F)c2)cc1-c1ccnc(-c2ccnc(C(N)=O)c2)c1 [Example 476] | –
≤ 100 nM | 1000 to 10000 nM | – | Cc1ccc(NC(=O)c2cc(C3CC3)n(C)n2)cc1-c1nccc(-c2ccnc(NC(=O)C3CC3)c2)n1 [Example 436] | ≤ 100 nM
– | – | 1000 to 10000 nM | Cc1cc(-c2cc(NC(=O)c3ccnc(C(C)(C)F)c3)ccc2C)cc(-c2ccnc(C(N)=O)c2)n1 [Example 484] | –
≤ 100 nM | – | – | COC(=O)Nc1cc(-c2cncc(-c3cc(NC(=O)c4ccnc(C(C)(C)F)c4)ccc3C)c2)ncn1 [Example 425] | ≤ 100 nM
≤ 100 nM | 100 to 500 nM | – | Cc1ccc(NC(=O)c2ccnc(C(C)C)c2)cc1-c1cncc(-c2cc(NC(=O)C3CC3)ncn2)c1 [Example 434] | ≤ 100 nM
– | – | 1000 to 10000 nM | CNC(=O)c1cc(-c2cncc(-c3cc(NC(=O)c4ccnc(C(C)(F)F)c4)ccc3C)c2)ccn1 [Example 440] | –
≤ 100 nM | 500 to 1000 nM | – | COC(=O)Nc1cc(-c2cncc(-c3cc(NC(=O)c4ccnc(C(C)(C)F)c4)ccc3C)c2)ccn1 [Example 435] | ≤ 100 nM
– | – | 500 to 1000 nM | CNC(=O)c1cc(-c2cc(-c3cc(NC(=O)c4ccnc(C(C)C)c4)ccc3C)ccn2)ccn1 [Example 443] | –
